Legend:
Akt phosphorylation [1] = assay: Immunoblotting of Akt phosphorylation in C2 myoblast whole cell lysates; assay type: cell-based, mouse; details: different concentrations of IGF-I, C2 myoblasts
Experimental: (§1) Whole cell protein lysates were prepared as described (Mukherjee A and Rotwein P, Mol Endorcrinol 22, 1238-1250 (2008); incorporated by reference herein). Protein aliquots (15 μg/lane) were resolved by SDS-PAGE (12% separating gel), followed by transfer to Immobilon-FL membranes, and blocking with 50% AquaBlock solution. Membranes were incubated sequentially with primary and secondary antibodies, as described (Mukherjee and Rotwein, 2008 supra). Primary antibodies were incubated for 12-16 hr at a 1:1000 dilution, except for α-tubulin (1:10,000), and secondary antibodies for 90 min at 1:5000. Images were captured using the LiCoR Odyssey and version 3.0 analysis software (Lincoln, Nebr.).

Akt [2] = assay: FoxO1-clover reporter live-cell imaging in HeLa cells; assay type: cell-based; details: IGF-I 500 pM, insulin 1400 pM, EGF 4.2 nM, PDGF-BB 4.1 nM, PDGF-AA 3.5 nM; 90 min
Experimental: HeLa cells (ATCC #CCL2) were incubated in DMEM supplemented with 10% FBS. Cells were transduced at 50% of confluent density with concentrated FoxO1-clover virus in the presence of polybrene (6 μg/ml), as described (Gross S M and Rotwein P, Skelet Muscle 3, doi10.1186/2044-5040-3-10 (2013); incorporated by reference herein), and sorted by fluorescence intensity with a Becton-Dickinson Influx cell sorter. Reporter expression was stable for at least 10 passages in each sorted cell population. C3H10T1/2 mouse embryonic fibroblasts (ATC #CCL226) stably expressing FoxO1-clover (Gross and Rotwein, 2015), were maintained under selection with puromycin (2 μg/ml).
(§2) Live cell imaging was performed using an EVOS FL Auto microscope with a stage top incubator that was maintained at 37° C. and 95% humidified air with 5% CO2. Images were collected at 100× magnification at different intervals, using a 10× Fluorite objective (numerical aperture: 0.3), and a GFP light cube (excitation peak, 472/22 nm; emission peak, 510/42 nm). Images were analyzed with the NIH ImageJ plug-in Fiji (NIH, Bethesda, Md.), after using the Polynomial Fit plug-in to subtract background fluorescence, the Stack Reg (rigid registration) plug-in to register images, and the Gaussian Blur plug-in (at 2-pixels) to average fluorescence across pixels. Individual cells were manually tracked using the mTrackJ plug-in (Meijering E et al, Methods Enzymol 504, 183-200 (2012); incorporated by reference herein) by selecting a single point in the nucleus. Cells that died, divided, or migrated out of frame were excluded from analysis. In experiments performed in 6-well dishes, two locations on opposite sides of the well were imaged, while for studies using 24-well plates, one central location was imaged. In each location, at least 25 cells were tracked. The relative nuclear intensity of the FoxO1-clover reporter protein was calculated in each cell by normalizing the values measured at time 0 to 100%. This corresponded to incubation in serum-free medium (SFM). In graphs in which single cell responses were plotted with C3H10T1/2 cells, we applied a time-weighted smoothing filter to each data point. This consisted of averaging contributions from the two prior and two succeeding times (adding 50% of the prior or succeeding time point, and 25% of the next succeeding or earlier time point to 100% of the value of the time point in question, and then dividing by 2.5).
Short-term responses to individual growth factors: C3H10T1/2 cells were incubated in serum-free Fluorobrite medium plus 2 mM L-glutamine and 0.1% bovine serum albumin for 90 min. Different concentrations of growth factors were added and images were collected every 2 min for 90 min. Growth factors included insulin [0 to 1400 pM], EGF [0 to 4.2 nM], PDGF-AA [0 to 1400 pM], or PDGF-BB [0 to 104 pM]. HeLa cells were incubated in serum-free Fluorobrite medium for 120 min and then incubated with insulin [1400 pM], EGF [4.2 nM], PDGF-AA [3.5 nM], PDGF-BB [4.1 nM], or R3-486 IGF-I [500 pM], with images collected every 2 min.

Akt phosphorylation [3] = assay: Immunoblotting of Akt and PRAS40 phosphorylation in 10T1/2 whole cell lysates; assay type: cell-based, mouse; details: for Akt phosphorylation (pAkt T308 immunoblot): 60 min, 10% FBS, PDGF-BB 206 pM, R3-IGF-I 1 nM, BMP-2 15 nM; for time course of Akt and PRAS40 phosphorylation (result in words): insulin 1400 pM, EGF 4.2 nM, PDGF-AA 1400 pM, PDGF-BB 104 pM, up to 90 min
Experimental: (§3) Cells were imaged every 2-min for 60 min. At the end of the incubation period whole cell lysates were collected.
as §1
C3H10T1/2 cells stably expressing FoxO1-clover were incubated in SFM with Fluorobrite imaging media for 90 min followed by addition of insulin [1400 pM], EGF [4.2 nM], PDGF-AA [1400 pM], or PDGF BB [104 pM]. Whole protein lysates were collected after 0, 5, 15, 30, 60, and 90 min of growth factor exposure by washing cells twice with cold PBS and addition of RIPA buffer containing protease and phosphatase inhibitors (Mukherjee A and Rotwein P, Mol Endocrinol 22, 1238-1250 (2008); incorporated by reference herein). Protein aliquots (12.5 μg/lane) were resolved by SDS PAGE (10% separating gels), and transferred onto Immobilon-FL membranes. Membranes were incubated in 50% AquaBlock for 60 min, followed by addition of primary antibodies at 1:1000 dilution for 16 hr, and secondary antibodies for 90 min at 1:5000. Images were collected using the LiCoR Odyssey and analysis software version 3.0 (Lincoln, Nebr.).

Akt [4] = assay: FOXO1-clover reporter live-cell imaging (relative nuclear intensity) in C3H10T1/2 fibroblasts; assay type: cell-based, mouse; details: for change of nuclear levels of the reporter on growth factor addition (result in words): different concentrations; for change of nuclear levels of the reporter on growth factor addition (result in words) / time to half-maximal translocation/accumulation of reporter in the cytoplasm after onset of incubation / time to maximal translocation values: cells pre-incubated in SFM; for time to half-maximal translocation/accumulation of reporter in the cytoplasm after onset of incubation / time to maximal translocation values: different growth factor concentrations; for response to a second treatment with the same growth factor: sequential exposures, IGF-I 50 or 500 pM with 90-min washout, EGF 4.2 nM after 60 min EGF; for subcellular localization of FOXO1-clover (result in words): serum-starved cells, 60 min, 10% FBS, PDGF-BB 206 pM, R3-IGF-I 1 nM, BMP-2 15 nM
Experimental: as §3
10T1/2 cells and C2 myoblasts were incubated in serum-free medium for 90 min. R3-IGF-I was added in supplemented FluoroBrite [0 to 500 pM], and cells were imaged every 2-min for 60 min. […]
as §2, with “tracked.” for “tracked. The relative nuclear intensity of the FoxO1-clover reporter protein was calculated in each cell by normalizing the values measured at time 0 to 100%. This corresponded to incubation in serum-free medium (SFM). In graphs in which single cell responses were plotted with C3H10T1/2 cells, we applied a time-weighted smoothing filter to each data point. This consisted of averaging contributions from the two prior and two succeeding times (adding 50% of the prior or succeeding time point, and 25% of the next succeeding or earlier time point to 100% of the value of the time point in question, and then dividing by 2.5).”

Akt [5] = assay: FOXO1-clover reporter live-cell imaging in C2 myoblasts; assay type: cell-based, mouse; details: different concentrations of R3-IGF-I, 60 min
Experimental: C3H10T1/2 mouse embryonic fibroblasts (ATCC #CCL226) were incubated in DMEM supplemented with 10% FBS. Mouse C2 myoblasts (Yaffe and Saxel, 1977) were grown in DMEM supplemented with 10% FBS and 10% newborn calf serum. Cells were transduced at 50% of confluent density with concentrated virus in the presence of 6 μg/ml polybrene, as described (Mukherjee A et al, Mol Cell Biol 30, 1018-1027 (2010); incorporated by reference herein). Cells were then selected by incubation with puromycin (2 μg/ml) for one week. Surviving cells were sorted by fluorescence intensity using a Becton-Dickinson Influx cell sorter at the OHSU Flow Cytometry Core Facility. Reporter expression was stable for at least 10 passages in each sorted cell population.
10T1/2 cells and C2 myoblasts were incubated in serum-free medium for 90 min. R3-IGF-I was added in supplemented FluoroBrite [0 to 500 pM], and cells were imaged every 2-min for 60 min.

[6] = higher concentrations of PDGF-BB
[7] = lower growth factor concentrations
[8] = two highest concentrations of PDGF-AA

Question: What does the source list for “R3-IGF-I: growth factor purchased from GroPep; binds minimally to IGF binding proteins; activates Akt”?
Answer: extent of Akt phosphorylation (immunoblot) (Akt phosphorylation [1]): dose-dependent increase in the extent of Akt phosphorylation; signaling response in HeLa FoxO1-clover cells (result in words) (Akt [2]): sustained signaling effects; Akt phosphorylation (pAkt T308 immunoblot) (Akt phosphorylation [3]): stimulation of Akt phosphorylation; extent of Akt phosphorylation (immunoblot) (Akt phosphorylation [3]; different concentrations of IGF-I, 10T1/2 cells): dose-dependent increase in the extent of Akt phosphorylation; response to IGF-I after prior EGF (Akt [4]; EGF 4.2 nM for 60 min, then IGF-I 500 pM): rapid, extensive, and sustained signaling response; change of nuclear levels of the reporter on growth factor addition (result in words) (Akt [4]; population level): rapid and dose-dependent reduction in nuclear levels of the reporter; time to half-maximal translocation/accumulation of reporter in the cytoplasm after onset of incubation (Akt [4]; population level): 8 to 10 min; time to maximal translocation values (Akt [4]; population level): 14 to 16 min; response to a second treatment with the same growth factor (Akt [4]): qualitatively similar population responses to each dose; subcellular localization of FOXO1-clover (result in words) (Akt [4]): rapid and sustained translocation of the reporter from the nucleus to the cytoplasm; reporter response in C2 myoblasts compared with 10T1/2 cells (Akt [5]): marked increase in sensitivity to IGF-I

Question: Which results are given for “PDGF-BB: recombinant human PDGF-BB (Invitrogen); binds PDGF-α and PDGF-β receptors”?
Answer: signaling response in HeLa FoxO1-clover cells (result in words) (Akt [2]): transient responses; Akt phosphorylation (pAkt T308 immunoblot) (Akt phosphorylation [3]): stimulation of Akt phosphorylation; time course of Akt and PRAS40 phosphorylation (result in words) (Akt phosphorylation [3]): Similarly sustained signaling; duration of maintained cytoplasmic localization of the reporter (Akt [4]; [6]): at least 90 min; time to half-maximal accumulation of FoxO1-clover in the cytoplasm (Akt [4]; [6]): < 5 min; time to half-maximal accumulation of FoxO1-clover in the cytoplasm (Akt [4]; [7]): 8 to 9 min; time to maximal values (Akt [4]; [7]): ~14 min; fraction of cells showing large and sustained signaling responses (Akt [4]; peak concentrations of PDGF-BB): 90-99%; subcellular localization of FOXO1-clover (result in words) (Akt [4]): rapid and sustained translocation of the reporter from the nucleus to the cytoplasm

Question: How did the “signaling response in HeLa FoxO1-clover cells (result in words)” value (Akt [2]) turn out when “EGF: mouse EGF (Gibco-Life Technologies), peptide growth factor (NSYPGCPSSYDGYCLNGGVCMHIESLDSYTCNCVIGYSGDRCQTRDLRWWELR; Epidermal growth factor; UniProt P01132 977-1029, looked up)” was run?
Answer: The value was “transient responses”.

Question: And the “time course of Akt and PRAS40 phosphorylation (result in words)” value (Akt phosphorylation [3])?
Answer: The value was “Similarly transient effects”.

Question: What about the “change of nuclear levels of the reporter on growth factor addition (result in words)” value (Akt [4]; population level) of the same substance?
Answer: Its value is “rapid, dose-dependent, and transient decreases in nuclear levels of the FoxO1-clover reporter protein”.

Question: What about the “time by which signal intensity was waning” value (Akt [4]; population level, after EGF treatment) of the same substance?
Answer: The value was 45 min.

Question: And the “time to half-maximal translocation/accumulation of reporter in the cytoplasm after onset of incubation” value (Akt [4]; population level)?
Answer: Its value is 6 to 9 min.

Question: And the “time to maximal translocation values” (Akt [4]; population level)?
Answer: The value was ~13 min.

Question: What about the “response to a second treatment with the same growth factor” value (Akt [4]) of the same substance?
Answer: The value was “minimally promoted FoxO1-clover reporter translocation out of the nucleus”.

Question: “PDGF-AA: recombinant human PDGF-AA (Thermo Scientific); binds almost exclusively to the PDGF-α receptor” was tested. Which “signaling response in HeLa FoxO1-clover cells (result in words)” value (Akt [2]) did it give?
Answer: The value was “ineffective”.

Question: And the “time course of Akt and PRAS40 phosphorylation (result in words)” value (Akt phosphorylation [3])?
Answer: Its value is “Similarly brief effects”.

Question: What about the “change of nuclear levels of the reporter on growth factor addition (result in words)” value (Akt [4]; population level) of the same substance?
Answer: The value was “rapid, dose-dependent decreases in nuclear levels of FoxO1-clover”.

Question: And the “decline of population response from peak values” (Akt [4]; over the next 40 min after the peak)?
Answer: Its value is 50-75%.

Question: And the “time to half-maximal translocation/accumulation of reporter in the cytoplasm after onset of incubation” value (Akt [4]; population level)?
Answer: The value was 6 to 10 min.

Question: And the “time to maximal translocation values” (Akt [4]; population level)?
Answer: Its value is ~14 min.

Question: What about the “fraction of cells demonstrating sustained effects” value (Akt [4]; [8]) of the same substance?
Answer: The value was 10-15%.

Question: What about the “fraction of cells showing no or minimal responses” value (Akt [4]; [8]) of the same substance?
Answer: The value was 25-30%.

Reference: US20160290995A1, “METHODS OF SELECTING AKT AGONISTS OR ANTAGONISTS” (OREGON HEALTH & SCIENCE UNIVERSITY, priority 2015, published 2016)
